Results taken from US8986722B2, “Pest control composition” (priority 2010, dated 2015).

Assays:
[1] = HLB of polyglycerol fatty acid ester, Griffin formula 20(1−S/A); format: physicochemical; conditions: from saponification and acid values
Text: The HLB (Hydrophile-Lipophile Balance) is an index indicating degrees of hydrophilic properties and lipophilic properties of a surfactant and being shown by a numerical value of 0 to 20. […] Therefore, a surfactant having a low HLB is apt to adapt to a hydrophobic system and a surfactant having a high HLB is apt to adapt to a hydrophilic system.
As the HLB value of said polyglycerol fatty acid ester, a numerical value derived from the following calculation method which is an empirical formula by Griffin is applied. In this regard, as the below-described saponification and acid values, values analyzed in accordance with general test procedures of standards for food additives and standards of quasi-drug ingredients are used. HLB value=20(1−S/A)
S: Saponification value for an ester of a surfactant.
A: Acid value of a fatty acid constituting a surfactant.

[2] = Surface tension by Wilhelmy method (plate method); format: physicochemical; conditions: 20° C., 0.1% by mass aqueous solution
Method: For surface tension in the present description, a numerical value measured by Wilhelmy method (plate method) is used. The principle of measurement is as described below. When a platinum plate is contacted with the surface of a liquid, the liquid rises along the plate. Then, surface tension acts along the periphery of the plate and a force drawing the plate into the liquid is generated. Thus in the method, this drawing force is measured and the surface tension is measured. Specifically, a 0.1% by mass aqueous solution of a sample nonionic surfactant is made as a measurement sample, which is measured by an automatic surface tension measuring machine (for example, DY-300 automatic surface tension meter, manufactured by Kyowa Interface Science Corp., Ltd.) by Wilhelmy method shown above at a temperature of 20° C. to determine the surface tension. […] The nonionic surfactant has a property to decrease the surface tension of an aqueous solution. For this reason, when an aqueous solution containing this adheres to the surface of another substance, “wettability” at said surface is improved. As a result, a diluent of the present invention composition containing said nonionic surfactant easily adheres to the surface of target pests and the surface of spray-target agricultural crops.

Compound	HLB [1]	other results
decaglycerol monocaprate [SY Glyster MCA-750]	16	HLB ([1]; listed as decaglycerol monocapric acid ester): about 16
decaglycerol erucate [SY Glyster NE-750]	3.2	
polyglycerol condensed ricinoleate [SY Glyster CRS-75]	3	
hexaglycerol octaoleic acid ester	about 4	
decaglycerol erucate [SY Glyster OE-750]	3.7	
hexaglycerol pentaoleate [SY Glyster PO-5S]	4.9	HLB ([1]; listed as hexaglycerol pentaoleic acid ester): about 5
tetraglycerol trioleic acid ester	about 5	
hexaglycerol monooleate [SY Glyster MO-5S]	11.6	HLB ([1]; listed as hexaglycerol monooleic acid ester): about 11
decaglycerol heptaoleic acid ester	about 5	
diglycerol monooleate [S-FACE O-201P]	8	HLB ([1]; listed as diglycerol monooleic acid ester): about 8
diglycerol trioleic acid ester	about 3	
tetraglycerol monolaurate [SY Glyster ML-310]	10.3	HLB ([1]; listed as tetraglycerol monolauric acid ester): about 10
CCCCCCCCOC(=O)CC(C(=O)OCCCCCCCC)S(=O)(=O)O (stereo not drawn) [Newkalgen EP-70G, dioctyl sulfosuccinate]		surface tension [2]: 28 mN/m
diglycerol tetraoleic acid ester	about 2	
decaglycerol decaoleate [SY Glyster DAO-7S]	3.2	HLB ([1]; listed as decaglycerol decaoleic acid ester): about 4

Second part, led by results:

HLB [1]	Compound	other results
about 5	decaglycerol octaoleic acid ester	
about 2	tetraglycerol pentaoleic acid ester	
3	hexaglycerol condensed ricinoleate [SY Glyster CR-500]	HLB ([1]; listed as hexaglycerol-condensed ricinoleic acid ester): about 3
about 4	diglycerol dioleic acid ester	
about 3	decaglycerol dodecaoleic acid ester	
about 4	decaglycerol nonaoleic acid ester	
about 3	decaglycerol undecaoleic acid ester	
about 4	tetraglycerol tetraoleic acid ester	
about 4	hexaglycerol heptaoleic acid ester	
about 4	hexaglycerol hexaoleic acid ester	
about 2	tetraglycerol hexaoleic acid ester	
